Source: PubChem BioAssay (NCI)
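Exposure lasted 48 hours, with cells grown in 96-well plates and compounds tested at five concentrations. GI50 marks 50% less growth. TGI denotes the concentration required for complete inhibition of growth.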

Key:
Assay in all cases: NCI-60 cell line screen, 48 h
786-0 renal = system: 786-0 renal
A498 renal = system: A498 renal
A549 NSCLC = system: A549 NSCLC
ACHN renal = system: ACHN renal
BT-549 breast = system: BT-549 breast
CAKI-1 renal = system: CAKI-1 renal
CCRF-CEM leukemia = system: CCRF-CEM leukemia
COLO 205 colon = system: COLO 205 colon
DU-145 prostate = system: DU-145 prostate
EKVX NSCLC = system: EKVX NSCLC
HCC-2998 colon = system: HCC-2998 colon
HCT-116 colon = system: HCT-116 colon
HCT-15 colon = system: HCT-15 colon
HL-60(TB) leukemia = system: HL-60(TB) leukemia
HOP-62 NSCLC = system: HOP-62 NSCLC
HOP-92 NSCLC = system: HOP-92 NSCLC
HT29 colon = system: HT29 colon
IGROV1 ovarian = system: IGROV1 ovarian
K-562 leukemia = system: K-562 leukemia
KM12 colon = system: KM12 colon
LOX IMVI melanoma = system: LOX IMVI melanoma
M14 melanoma = system: M14 melanoma
MALME-3M melanoma = system: MALME-3M melanoma
MCF7 breast = system: MCF7 breast
MDA-MB-231 breast = system: MDA-MB-231 breast
MDA-MB-435 = system: MDA-MB-435
NCI-H226 lung = system: NCI-H226 lung
NCI-H23 lung = system: NCI-H23 lung
NCI-H460 lung = system: NCI-H460 lung
NCI-H522 lung = system: NCI-H522 lung
NCI/ADR-RES ovarian = system: NCI/ADR-RES ovarian
OVCAR-3 ovarian = system: OVCAR-3 ovarian
OVCAR-4 ovarian = system: OVCAR-4 ovarian
OVCAR-5 ovarian = system: OVCAR-5 ovarian
OVCAR-8 ovarian = system: OVCAR-8 ovarian
PC-3 prostate = system: PC-3 prostate
RPMI-8226 leukemia = system: RPMI-8226 leukemia
SF-268 CNS = system: SF-268 CNS
SF-295 CNS = system: SF-295 CNS
SF-539 CNS = system: SF-539 CNS
SK-MEL-28 melanoma = system: SK-MEL-28 melanoma
SK-MEL-5 melanoma = system: SK-MEL-5 melanoma
SK-OV-3 ovarian = system: SK-OV-3 ovarian
SN12C renal = system: SN12C renal
SNB-19 CNS = system: SNB-19 CNS
SNB-75 CNS = system: SNB-75 CNS
SW-620 colon = system: SW-620 colon
T-47D breast = system: T-47D breast
TK-10 renal = system: TK-10 renal
U251 CNS = system: U251 CNS
UACC-257 melanoma = system: UACC-257 melanoma
UACC-62 melanoma = system: UACC-62 melanoma
UO-31 renal = system: UO-31 renal
HS 578T breast = system: HS 578T breast
MOLT-4 leukemia = system: MOLT-4 leukemia
RXF 393 renal = system: RXF 393 renal
SK-MEL-2 melanoma = system: SK-MEL-2 melanoma
SR leukemia = system: SR leukemia

O=c1[nH]c2ccccc2cc1-c1nc2ccc(Cl)cc2[nH]1
GI50 (786-0 renal): 7.42 µM
TGI (786-0 renal): > 100 µM
GI50 (A498 renal): 2.48 µM
TGI (A498 renal): 15.7 µM
GI50 (A549 NSCLC): 5.15 µM
TGI (A549 NSCLC): > 100 µM
GI50 (ACHN renal): 2.45 µM
TGI (ACHN renal): > 100 µM
GI50 (BT-549 breast): 2.99 µM
TGI (BT-549 breast): > 100 µM
GI50 (CAKI-1 renal): 1.02 µM
TGI (CAKI-1 renal): > 100 µM
GI50 (CCRF-CEM leukemia): 3.24 µM
TGI (CCRF-CEM leukemia): > 100 µM
GI50 (COLO 205 colon): 3.25 µM
TGI (COLO 205 colon): > 100 µM
GI50 (DU-145 prostate): 7.68 µM
TGI (DU-145 prostate): 64.2 µM
GI50 (EKVX NSCLC): 2.35 µM
TGI (EKVX NSCLC): > 100 µM
GI50 (HCC-2998 colon): 11 µM
TGI (HCC-2998 colon): > 100 µM
GI50 (HCT-116 colon): 2.66 µM
TGI (HCT-116 colon): 21.4 µM
GI50 (HCT-15 colon): 2.91 µM
TGI (HCT-15 colon): > 100 µM
GI50 (HL-60(TB) leukemia): 3.24 µM
TGI (HL-60(TB) leukemia): 10.4 µM
GI50 (HOP-62 NSCLC): 6.79 µM
TGI (HOP-62 NSCLC): 59.3 µM
GI50 (HOP-92 NSCLC): 1.48 µM
TGI (HOP-92 NSCLC): 9.29 µM
GI50 (HT29 colon): 4.24 µM
TGI (HT29 colon): > 100 µM
GI50 (IGROV1 ovarian): 1.36 µM
TGI (IGROV1 ovarian): > 100 µM
GI50 (K-562 leukemia): 3.85 µM
TGI (K-562 leukemia): > 100 µM
GI50 (KM12 colon): 0.385 µM
TGI (KM12 colon): > 100 µM
GI50 (LOX IMVI melanoma): 4.43 µM
TGI (LOX IMVI melanoma): > 100 µM
GI50 (M14 melanoma): 2.86 µM
TGI (M14 melanoma): > 100 µM
GI50 (MALME-3M melanoma): > 100 µM
TGI (MALME-3M melanoma): > 100 µM
GI50 (MCF7 breast): 1.4 µM
TGI (MCF7 breast): > 100 µM
GI50 (MDA-MB-231 breast): 3.25 µM
TGI (MDA-MB-231 breast): 85.9 µM
GI50 (MDA-MB-435): 4.39 µM
TGI (MDA-MB-435): > 100 µM
GI50 (NCI-H226 lung): 2.71 µM
TGI (NCI-H226 lung): > 100 µM
GI50 (NCI-H23 lung): 4.7 µM
TGI (NCI-H23 lung): > 100 µM
GI50 (NCI-H460 lung): 2.61 µM
TGI (NCI-H460 lung): > 100 µM
GI50 (NCI-H522 lung): 6.79 µM
TGI (NCI-H522 lung): > 100 µM
GI50 (NCI/ADR-RES ovarian): 6.09 µM
TGI (NCI/ADR-RES ovarian): > 100 µM
GI50 (OVCAR-3 ovarian): 2.37 µM
TGI (OVCAR-3 ovarian): 7.25 µM
GI50 (OVCAR-4 ovarian): 5.09 µM
TGI (OVCAR-4 ovarian): > 100 µM
GI50 (OVCAR-5 ovarian): 51.7 µM
TGI (OVCAR-5 ovarian): > 100 µM
GI50 (OVCAR-8 ovarian): 6.51 µM
TGI (OVCAR-8 ovarian): > 100 µM
GI50 (PC-3 prostate): 3.71 µM
TGI (PC-3 prostate): 29.1 µM
GI50 (RPMI-8226 leukemia): 1.42 µM
TGI (RPMI-8226 leukemia): 6.78 µM
GI50 (SF-268 CNS): 6.09 µM
TGI (SF-268 CNS): > 100 µM
GI50 (SF-295 CNS): 9.63 µM
TGI (SF-295 CNS): > 100 µM
GI50 (SF-539 CNS): 4.13 µM
TGI (SF-539 CNS): 17.2 µM
GI50 (SK-MEL-28 melanoma): 6.66 µM
TGI (SK-MEL-28 melanoma): 45.7 µM
GI50 (SK-MEL-5 melanoma): 3.4 µM
TGI (SK-MEL-5 melanoma): 32.5 µM
GI50 (SK-OV-3 ovarian): 2.22 µM
TGI (SK-OV-3 ovarian): 8.01 µM
GI50 (SN12C renal): 3.17 µM
TGI (SN12C renal): > 100 µM
GI50 (SNB-19 CNS): 29.8 µM
TGI (SNB-19 CNS): > 100 µM
GI50 (SNB-75 CNS): 2.98 µM
TGI (SNB-75 CNS): > 100 µM
GI50 (SW-620 colon): 4.81 µM
TGI (SW-620 colon): > 100 µM
GI50 (T-47D breast): 3.33 µM
TGI (T-47D breast): > 100 µM
GI50 (TK-10 renal): 2.51 µM
TGI (TK-10 renal): > 100 µM
GI50 (U251 CNS): 3.87 µM
TGI (U251 CNS): > 100 µM
GI50 (UACC-257 melanoma): 13.9 µM
TGI (UACC-257 melanoma): > 100 µM
GI50 (UACC-62 melanoma): 2.83 µM
TGI (UACC-62 melanoma): > 100 µM
GI50 (UO-31 renal): 3.31 µM
TGI (UO-31 renal): > 100 µM

CCOC(=O)C(NC(=O)Nc1ccc(C)cc1)(OCC)C(F)(F)F (stereo unspecified)
TGI (786-0 renal): > 100 µM
TGI (A498 renal): > 100 µM
TGI (ACHN renal): > 100 µM
TGI (BT-549 breast): > 100 µM
TGI (CAKI-1 renal): > 100 µM
TGI (CCRF-CEM leukemia): > 100 µM
TGI (COLO 205 colon): > 100 µM
TGI (HCC-2998 colon): > 100 µM
TGI (HCT-116 colon): > 100 µM
TGI (HL-60(TB) leukemia): > 100 µM
TGI (HOP-62 NSCLC): > 100 µM
TGI (HS 578T breast): > 100 µM
TGI (HT29 colon): > 100 µM
TGI (IGROV1 ovarian): > 100 µM
TGI (K-562 leukemia): > 100 µM
TGI (M14 melanoma): > 100 µM
TGI (MDA-MB-435): > 100 µM
TGI (MOLT-4 leukemia): > 100 µM
TGI (NCI-H23 lung): > 100 µM
TGI (NCI/ADR-RES ovarian): > 100 µM
TGI (OVCAR-5 ovarian): > 100 µM
TGI (RPMI-8226 leukemia): > 100 µM
TGI (RXF 393 renal): > 100 µM
TGI (SF-268 CNS): > 100 µM
TGI (SF-539 CNS): > 100 µM
TGI (SK-MEL-2 melanoma): > 100 µM
TGI (SK-MEL-28 melanoma): > 100 µM
TGI (SK-OV-3 ovarian): > 100 µM
TGI (SNB-19 CNS): > 100 µM
TGI (SNB-75 CNS): > 100 µM
TGI (SR leukemia): > 100 µM
TGI (T-47D breast): > 100 µM
TGI (U251 CNS): > 100 µM
TGI (UACC-257 melanoma): > 100 µM
TGI (UO-31 renal): > 100 µM
